From patent US20040191240A1, “Composition and method for nerve regeneration” (priority 2003, published 2004)
“Also recorded” adds a separate entry of the source. Each block holds one compound with its values, some of them ahead of it. Where no end group is shown, it is not given here.

Legend:
RhoA = assay: Affinity-precipitation of GTP-RhoA in cerebellar neurons; format: cell-based, mouse; conditions: TAT-Pep5 1 μM; Nogo peptide 4 μM, MAG-Fc 25 μg/ml; 30 min
Method: 293 cells were transfected with pcDNA3 vectors containing wild type RhoA whose NH2-terminus is tagged with HA (Yamashita, T. et al., Neuron. 24:585-593, 1999) and/or full-length human p75 by lipofection using Lipofectamine 2000 (Gibco BRL). Cerebellar neurons from P9 mice were isolated as described previously (Cai et al, Neuron, 22:89-101, 1999). Cells were lysed in 50 mM Tris (pH 7.5), 1% Triton X-100, 0.5% sodium deoxycholate, 0.1% SDS, 500 mM NaCl, 10 mM MgCl2, with leupeptin and aprotinin, each at 10 μg/ml. Cell lysates were clarified by centrifugation at 13,000×g at 4° C. for 10 min, and the supernatants were incubated with the 20 μg of GST-Rho binding domain of Rhotekin beads (Upstate Biotech.) at 4° C. for 45 min. The beads were washed 4 times with washing buffer (50 mM Tris (pH 7.5) containing 1% Triton X-100, 150 mM NaCl, 10 mM MgCl2, 10 μg/ml each of leupeptin and aprotinin). Bound Rho proteins were detected by Western blotting using a monoclonal antibody against RhoA (Santa Cruz Biotechnology).
Amino-terminally FLAG-tagged human p75 or the deletion mutants of p75 ICD were cloned into pcDNA3.1 expression plasmid, and were transfected with 293T cells. […] Bound Rho proteins were detected by Western blotting using a monoclonal antibody against RhoA (Santa Cruz Biotechnology).

male Wistar rats [1] = assay: Spinal cord injury (dorsal half dissected, ninth thoracic vertebra), agent pumped to the injured site; format: in vivo, rat; conditions: continuous osmotic pump to the injured site; versus control peptide
Method: 200 g male Wistar rats were used. After the ninth thoracic vertebrae laminectomy was performed, the dorsal half of the spinal cord was dissected. A continuous osmotic pump was used to continuously administer either TAT(PTD domain)-fused Pep5 (TAT-[…]) (SEQ ID NO. 2) or TAT(PTD domain)-fused control peptide (TAT-[…]) (SEQ ID NO. 15) to the injured site for 6 weeks ([…]). In this case, the tip of a tube connected to the pump was left in the medullary space. After spinal cord injury, the functional recovery was assessed using the BBB score. The animals were observed on day 7, 14, 21, 28, 35, and 42 after injury. These experiments were carried out using techniques described in Fournier A. E., Takizawa, B. T., Strittmatter, S. M., J. Neurosci. 2003, 23, 1416-1423.
200 g male Wistar rats were used. After the ninth thoracic vertebrae laminectomy was performed, the dorsal half of the spinal cord was dissected. A continuous osmotic pump was used to continuously administer either TAT-fused Pep5 or TAT (PTD domain)-fused control peptide to the injured site.

mice = assay: Spinal cord injury, similar experiments for mice (Example 2-7); format: in vivo, mouse
Method: Similar experiments were carried out for mice as described above.

cerebellar neurons = assay: Neurite outgrowth assay, post-natal cerebellar neurons; format: cell-based, mouse
DRG neurons = assay: Neurite outgrowth assay, adult DRG neurons; format: cell-based, mouse; conditions: peptide 100 nM
[2] = tested on: cerebellar granule neurons; assay: Ca2+ fluorescence imaging (Oregon-green 488BAPTA-1 and Fura Red); format: cell-based; conditions: p7 rat cerebellar granule neurons; inhibitor or antibody with MAG
[3] = tested on: Rho kinase fragment (aa 1-543); assay: Rho-kinase kinase assay in vitro (S6 kinase substrate peptide); format: biochemical
[4] = target: Rho-kinase (GST-CAT; aa 6-553) (Bos taurus, UniProt Q28021); assay: In vitro binding assay of p21 and Rho-kinase; conditions: p21 1 nM
Rho-kinase (GST-CAT; aa 6-553), sequence (Q28021 6-553): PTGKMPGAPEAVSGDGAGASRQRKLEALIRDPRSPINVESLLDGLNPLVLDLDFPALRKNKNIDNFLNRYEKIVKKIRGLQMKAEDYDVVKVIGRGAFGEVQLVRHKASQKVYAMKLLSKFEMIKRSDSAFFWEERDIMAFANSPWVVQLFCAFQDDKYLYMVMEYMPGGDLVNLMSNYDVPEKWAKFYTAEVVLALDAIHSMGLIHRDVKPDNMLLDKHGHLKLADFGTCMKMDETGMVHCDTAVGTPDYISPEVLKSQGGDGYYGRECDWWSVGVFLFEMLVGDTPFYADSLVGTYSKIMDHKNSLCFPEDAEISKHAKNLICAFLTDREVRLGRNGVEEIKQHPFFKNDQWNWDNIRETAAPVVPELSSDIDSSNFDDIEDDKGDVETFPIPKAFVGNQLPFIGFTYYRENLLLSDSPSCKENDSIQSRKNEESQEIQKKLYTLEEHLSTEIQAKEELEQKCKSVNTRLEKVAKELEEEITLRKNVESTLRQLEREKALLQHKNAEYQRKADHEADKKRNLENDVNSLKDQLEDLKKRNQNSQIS

male Wistar rats [5] = assay: Spinal cord injury, p21 and TAT-bound p21, BBB score; format: in vivo, rat; conditions: osmotic pump to the injured site for 2 weeks; observed from day 2 for 6 weeks
Method: 200 g male Wistar rats were used. After a ninth thoracic vertebrae laminectomy was performed, the dorsal half of the spinal cord was dissected. […] In this case, the tip of a tube connected to the pump was left in the medullary space.
After spinal cord injury, the functional recovery was assessed using the BBB score (Basso-Beattie-Bresnahan (BBB) Locomotor Rating; Basso, D. M., Beattie, M. S., Bresnahan, J. C., J. Neurotrauma 12 (1):1-21 (1995) ). Observation was carried out from day 2 after injury for 6 weeks.

[6] = tested on: cerebellar granule neurons from P7 rats; assay: Neurite outgrowth (growth) assay, cerebellar neurons; format: cell-based, rat; conditions: data not shown

Compound: TAT-CFFRGGFFNHNPRYC ({TAT}-CFFRGGFFNHNPRYC; cysteine pairing not given here) [TAT-Pep5, Pep5 fused with the amino-terminal 11 amino acid protein transduction domain of HIV TAT]
activation of RhoA induced by MAG-Fc or the Nogo peptide (RhoA): inhibited the activation of RhoA; also recorded: completely abolishes these effects
nerve regeneration after spinal cord injury (male Wistar rats [1]): nerve regeneration was significantly observed
nerve regeneration after spinal cord injury (mice): nerve regeneration was similarly observed
inhibitory effect of MAG (25 μg/ml) and the Nogo peptide (4 μM) on post-natal cerebellar neurons (cerebellar neurons): efficiently silenced the inhibitory effect
responsiveness of DRG neurons to MAG (25 μg/ml) and the Nogo peptide (4 μM) (DRG neurons): abolished their responsiveness

Compound: COc1ccc2c(c1)CC[C@@H]1[C@@H]2CC[C@]2(C)[C@@H](NCCCCCCN3C(=O)C=CC3=O)CC[C@@H]12 [U73122]
effect on Ca2+ elevation induced by MAG [2]: blocked

in vitro interaction with the catalytic region of Rho-kinase [4]: bound to each other in vitro
Compound: p21: recombinant full-length p21 (1-164 in SEQ ID NO. 23), cyclin-dependent protein kinase inhibitor
Rho-kinase activity toward S6 kinase substrate peptide [3]: inhibited the Rho-kinase activity toward S6 kinase substrate peptide in a dose-dependent manner
functional recovery after spinal cord injury (BBB score) (male Wistar rats [5]): not sufficiently observed

Compound: Cn1c2ccccc2c2c3c(c4c5ccccc5n(CCC#N)c4c21)CNC3=O [G06976]
neurite outgrowth by MAG-Fc or Nogo peptide when another PKC inhibitor was used [6]: Same results
